Results as given in patent US8030354B2, “Substituted biphenyl GPR40 modulators” (Amgen Inc., priority 2007, dated 2011).

Assays:
GPR40 [1] = target: T1, GPR40 (Homo sapiens, UniProt O14842); test: Inositol phosphate accumulation assay (A9_GPR40 cells); format: cell-based; set-up: expressed in transfected cells; host or cells: CHO cells stably transfected with GPR40 and aequorin; conditions: inositol phosphate assay, A9_GPR40 cells, 1 hour; read-out: IP3 EC50
Method in brief: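 A9 cells stably expressing GPR40 were labelled 16 h with 1 μCi/mL ^3H-inositol in inositol-free DMEM with dialysed FBS. Compounds in HBSS/10 mM LiCl with HSA were applied for 1 h at 37° C, then quenched with 20 mM formic acid. Accumulated [^3H] inositol phosphates were counted by SPA.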

[2] = test system: fetal rat intestinal cells isolated from E19 rat embryos; test: GLP-1 secretion into culture medium from fetal rat intestinal cells; format: cell-based; conditions: FIG. 5-7; cultured cells treated with serial dilutions of compound
Method: (§1) FIG. 5 is a graph showing the concentration of GLP-1 secreted into culture medium as a function of the amount of Example compounds 14 and 69.8. The GLP-1 was secreted from fetal rat intestinal cells isolated from E19 rat embryos. The cultured cells were treated with serial dilutions of the indicated compounds, and GLP-1 secreted into the culture medium was determined.
as §1, with “6” for “5”, “compound 66.6.” for “compounds 14 and 69.8.”, “compound,” for “compounds,”
as §1, with “7” for “5”, “14, 66.17, 77.3,” for “14”, “83.1.” for “69.8.”

GPR40 [3] = target: T1, GPR40; test: Cell-based aequorin assay (CHO cells stably expressing GPR40 and aequorin); set-up: expressed in transfected cells; host or cells: CHO cells stably transfected with GPR40 and aequorin; conditions: for EC50: activation of human GPR40, CHO cells, 0.01% HSA
Method in brief: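 CHO cells stably co-expressing GPR40 and aequorin, loaded with coelenterazine (1 ug/mL, 2 h, room temperature) in H/HBSS with 20 mM Hepes and 0.01% fatty acid-free HSA. Serially diluted compounds added; luminescence recorded over 20 s. EC50 from dose-response of maximum relative light units.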

GPR40 [4] = target: T1, GPR40; test: Aequorin luminescence in response to compounds; format: cell-based; set-up: expressed in transfected cells; conditions: FIG. 2; as a function of concentration; compared with fatty acid ligands
Source text: FIG. 2 is a graph showing Aequorin luminescence in response to various compounds as a function of concentration.

T1 sequence (O14842 whole entry): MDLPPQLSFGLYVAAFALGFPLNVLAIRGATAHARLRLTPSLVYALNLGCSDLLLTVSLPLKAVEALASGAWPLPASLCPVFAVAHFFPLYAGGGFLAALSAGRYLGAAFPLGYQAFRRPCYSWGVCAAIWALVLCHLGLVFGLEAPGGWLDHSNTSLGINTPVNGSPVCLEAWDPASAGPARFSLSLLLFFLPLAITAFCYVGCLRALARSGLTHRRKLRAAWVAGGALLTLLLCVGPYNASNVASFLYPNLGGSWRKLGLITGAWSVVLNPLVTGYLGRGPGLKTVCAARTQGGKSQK

Row | Structure (SMILES) | EC50 (GPR40 [1]) [nM] | concentration of GLP-1 secreted into culture medium [2] | EC50 (GPR40 [3]) [nM] | agonist type in aequorin assay (GPR40 [3]; compared with α-linolenic acid and docosahexaenoic acid, FIG. 2) | Aequorin luminescence (GPR40 [4])
1 | COc1ccc(F)c(-c2ccc(COc3cccc([C@@H](CC(=O)O)C4CC4)c3)cc2CC(C)(C)C)c1 (single isomer, unassigned) [Example 66.17, (3S)-3-Cyclopropyl-3-(3-(((2-(2,2-dimethylpropyl)-2′-fluoro-5′-(methyloxy)-1,1′-biphenyl-4-yl)methyl)oxy)phenyl)propanoic acid or (3R)-3-cyclopropyl-3-(3-(((2-(2,2-dimethylpropyl)-2′-fluoro-5′-(methyloxy)-1,1′-biphenyl-4-yl)methyl)oxy)phenyl)propanoic acid] | < 10 | significantly stimulated GLP-1 secretion | 10 to 100 |  | 
2 | CCC(CC(=O)O)c1cccc(OCc2ccc(-c3cc(OC)ccc3F)c(C3CCCC3(C)C)c2)c1F (single isomer, unassigned) [Example 77.3] | < 10 | significantly stimulated GLP-1 secretion | 100 to 1000 |  | 
3 | COc1ccc(F)c(-c2ccc(COc3cccc([C@@H](CC(=O)O)C4CC4)c3)cc2C2CCCC2(C)C)c1 (single isomer, unassigned) [Example 66.4, (3S)-3-Cyclopropyl-3-(3-(((2-(2,2-dimethylcyclopentyl)-2′-fluoro-5′-(methyloxy)-1,1′-biphenyl-4-yl)methyl)oxy)phenyl)propanoic acid or (3R)-3-cyclopropyl-3-(3-(((2-(2,2-dimethylcyclopentyl)-2′-fluoro-5′-(methyloxy)-1,1′-biphenyl-4-yl)methyl)oxy)phenyl)propanoic acid] | < 10 |  | 100 to 1000 | potent full agonists | equivalent to naturally occurring fatty acid ligands
4 | COc1ccc(F)c(-c2ccc(COc3cccc(C(CC(=O)O)C4CC4)c3)cc2C2CCCC2(C)C)c1 (single isomer, unassigned) [Example 66.6] | < 10 | significantly stimulated GLP-1 secretion | 10 to 100 |  | 
5 | COc1ccc(F)c(-c2ccc(COc3cccc(CCC(=O)O)c3)cc2OC(F)(F)F)c1 [Example 38, 3-[3-(2′-Fluoro-5′-methoxy-2-trifluoromethoxy-biphenyl-4-ylmethoxy)-phenyl]-propionic acid] | 1000 to 10000 |  | 100 to 1000 |  | 
6 | COc1ccc(F)c(-c2cc(F)c(COc3cccc(C(CC(=O)O)CC4CC4)c3F)cc2C2CCCC2(C)C)c1 (single isomer, unassigned) [Example 84.4] | < 10 |  | 100 to 1000 |  | 
7 | COc1ccc(F)c(-c2ccc(COc3cccc(C(C)(C)CC(=O)O)c3)cc2C2CCCC2(C)C)c1 (single isomer, unassigned) [Example 85.3, 3-(3-(((2-((1R)-2,2-Dimethylcyclopentyl)-2′-fluoro-5′-(methyloxy)-1,1′-biphenyl-4-yl)methyl)oxy)phenyl)-3-methylbutanoic acid or 3-(3-(((2-((1S)-2,2-dimethylcyclopentyl)-2′-fluoro-5′-(methyloxy)-1,1′-biphenyl-4-yl)methyl)oxy)phenyl)-3-methylbutanoic acid] | 10 to 100 |  | 100 to 1000 |  | 
8 | C=C(C)[C@H](CC(=O)O)c1cccc(OCc2ccc(-c3cc(OC)ccc3F)c(OCCCC)c2)c1 (single isomer, unassigned) [Example 50, (3S)-3-(3-(((2-(Butyloxy)-2′-fluoro-5′-(methyloxy)-1,1′-biphenyl-4-yl)methyl)oxy)phenyl)-4-methyl-4-pentenoic acid or (3R)-3-(3-(((2-(butyloxy)-2′-fluoro-5′-(methyloxy)-1,1′-biphenyl-4-yl)methyl)oxy)phenyl)-4-methyl-4-pentenoic acid] | 1000 to 10000 |  | 1000 to 10000 |  | 
9 | COc1ccc(F)c(-c2ccc(COc3cccc(C(CC(=O)O)C4CC4)c3F)cc2C2CCCC2(C)C)c1 (single isomer, unassigned) [Example 83.1] | < 10 | significantly stimulated GLP-1 secretion | 10 to 100 |  | 
10 | COc1ccc(F)c(-c2ccc(COc3cccc(C(CC(=O)O)CC4CC4)c3)cc2C2CCCCCCC2)c1 (single isomer, unassigned) [Example 69.13, (3R)-3-(3-(((2-Cyclooctyl-2′-fluoro-5′-(methyloxy)-1,1′-biphenyl-4-yl)methyl)oxy)phenyl)-4-cyclopropylbutanoic acid or (3S)-3-(3-(((2-cyclooctyl-2′-fluoro-5′-(methyloxy)-1,1′-biphenyl-4-yl)methyl)oxy)phenyl)-4-cyclopropylbutanoic acid] | < 10 |  | 100 to 1000 |  | 
11 | CCC[C@H](CC(=O)O)c1cccc(OCc2ccc(-c3cc(OC)ccc3F)c(C3CCCC3(C)C)c2)c1 (single isomer, unassigned) [Example 67.11, (3R)-3-(3-(((2-(2,2-Dimethylcyclopentyl)-2′-fluoro-5′-(methyloxy)-1,1′-biphenyl-4-yl)methyl)oxy)phenyl)hexanoic acid or (3S)-3-(3-(((2-(2,2-dimethylcyclopentyl)-2′-fluoro-5′-(methyloxy)-1,1′-biphenyl-4-yl)methyl)oxy)phenyl)hexanoic acid] | 10 to 100 |  | 100 to 1000 |  | 
12 | CCC(CC(=O)O)c1cc(F)cc(OCc2ccc(-c3cc(OC)ccc3F)c(C3=CCCC3(C)C)c2)c1F (single isomer, unassigned) [Example 90.1, (3R)-3-(3-(((2-(5,5-Dimethyl-1-cyclopenten-1-yl)-2′-fluoro-5′-(methyloxy)-1,1′-biphenyl-4-yl)methyl)oxy)-2,5-difluorophenyl)pentanoic acid or (3S)-3-(3-(((2-(5,5-dimethyl-1-cyclopenten-1-yl)-2′-fluoro-5′-(methyloxy)-1,1′-biphenyl-4-yl)methyl)oxy)-2,5-difluorophenyl)pentanoic acid] | 10 to 100 |  | 100 to 1000 |  | 
13 | COc1ccc(F)c(-c2ccc(COc3cccc(C(C)(CC(=O)O)C4CC4)c3)cc2[C@H]2CCCC2(C)C)c1 (single isomer, unassigned) [Example 104, 3-Cyclopropyl-3-(3-(((2-((1S)-2,2-dimethylcyclopentyl)-2′-fluoro-5′-(methyloxy)-1,1′-biphenyl-4-yl)methyl)oxy)phenyl)butanoic acid or 3-cyclopropyl-3-(3-(((2-((1R)-2,2-dimethylcyclopentyl)-2′-fluoro-5′-(methyloxy)-1,1′-biphenyl-4-yl)methyl)oxy)phenyl)butanoic acid] | 10 to 100 |  | 100 to 1000 |  | 
14 | CCC(CC(=O)O)c1cc(OCc2ccc(-c3cc(OC)ccc3F)c(C3=CCCC3(C)C)c2)ccc1F (single isomer, unassigned) [Example 76.1, (3R)-3-(5-(((2-(5,5-Dimethyl-1-cyclopenten-1-yl)-2′-fluoro-5′-(methyloxy)-1,1′-biphenyl-4-yl)methyl)oxy)-2-fluorophenyl)pentanoic acid or (3S)-3-(5-(((2-(5,5-dimethyl-1-cyclopenten-1-yl)-2′-fluoro-5′-(methyloxy)-1,1′-biphenyl-4-yl)methyl)oxy)-2-fluorophenyl)pentanoic acid] | 10 to 100 |  | 100 to 1000 |  | 
15 | COc1ccc(F)c(-c2ccc(COc3cccc([C@@H](CC(=O)O)CC4CC4)c3)cc2[C@H]2CCCC2(C)C)c1 (single isomer, unassigned) [Example 69.8] | < 10 | significantly stimulated GLP-1 secretion | 10 to 100 |  | 
16 | CCC(CC(=O)O)c1cccc(OCc2ccc(-c3cc(OC)ccc3F)c(C(OC)C(C)(C)CC)c2)c1 (single isomer, unassigned) [Example 78.14] | < 10 |  | 10 to 100 |  | 
17 | CCC(CC(=O)O)c1cccc(OCc2cc(C3CCCC3(C)C)c(-c3cc(OC)ccc3F)cc2F)c1F (single isomer, unassigned) [Example 77.6] | < 10 |  | 100 to 1000 |  | 
18 | COc1cc(-c2ccc(COc3cccc([C@@H](CC(=O)O)C4CC4)c3F)cc2[C@@H]2CCCC2(C)C)c(F)cn1 (single isomer, unassigned) [Example 83.5] | 10 to 100 |  | 100 to 1000 |  | 
